According to ChEMBL document CHEMBL1201862, “PubChem BioAssay data set” (2004):
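Briefly, cells in 96-well plates were exposed to five compound concentrations for 48 h, and endpoints were estimated by linear interpolation. At the GI50, growth is halved.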 Calls of active or inactive are those of the source. No stated cut-off is given here; in the data, active = GI50 up to about 1.1 µM and inactive = higher.

What was measured:
Test in all cases: NCI-60 cell line screen, 48 h
[1] = test system: DMS-114
[2] = test system: 786-0
[3] = test system: HCT-15
[4] = test system: HCC 2998
[5] = test system: COLO 205
[6] = test system: NCI-H226
[7] = test system: A549
[8] = test system: SF-295
[9] = test system: TK-10
[10] = test system: SR
[11] = test system: UO-31
[12] = test system: ACHN
[13] = test system: NCI-H23
[14] = test system: SK-MEL-5
[15] = test system: M19-MEL
[16] = test system: OVCAR-3
[17] = test system: SK-MEL-2
[18] = test system: DU-145
[19] = test system: MDA-MB-435
[20] = test system: MDA-MB-231

## COC[n+]1cc2cc(OC)c(OC)cc2c2ccc3cc(OC)c(OC)cc3c21
[1]
  GI50: > 100 µM (inactive)
[2]
  GI50: > 100 µM (inactive)
[3]
  GI50: > 100 µM
[4]
  GI50: > 100 µM (inactive)
[5]
  GI50: > 100 µM (inactive)
[6]
  GI50: > 100 µM (inactive)
[7]
  GI50: > 100 µM (inactive)
[8]
  GI50: > 100 µM (inactive)
[9]
  GI50: > 100 µM (inactive)
[10]
  GI50: > 10 µM (inactive)
[11]
  GI50: > 100 µM (inactive)
[12]
  GI50: > 100 µM (inactive)
[13]
  GI50: > 100 µM (inactive)
[14]
  GI50: > 100 µM (inactive)
[15]
  GI50: > 100 µM (inactive)
[16]
  GI50: > 100 µM (inactive)
[17]
  GI50: > 100 µM (inactive)

## CC(=O)OCC(=O)[C@@]1(O)CC[C@H]2[C@@H]3C[C@H](C)C4=CC(=O)C=C[C@]4(C)[C@@]3(F)[C@@H](O)C[C@@]21C
[1]
  GI50: > 100 µM (inactive)
[2]
  GI50: > 100 µM (inactive)
[3]
  GI50: > 100 µM
[4]
  GI50: > 100 µM (inactive)
[5]
  GI50: > 100 µM (inactive)
[6]
  GI50: 32.5 µM (inactive)
[7]
  GI50: > 100 µM (inactive)
[8]
  GI50: > 100 µM (inactive)
[9]
  GI50: > 100 µM (inactive)
[10]
  GI50: 96.4 µM (inactive)
[11]
  GI50: 81.1 µM (inactive)
[12]
  GI50: > 100 µM (inactive)
[13]
  GI50: > 100 µM (inactive)
[14]
  GI50: > 100 µM (inactive)
[15]
  GI50: > 100 µM (inactive)
[16]
  GI50: > 100 µM (inactive)
[17]
  GI50: > 100 µM (inactive)

## Cc1c(C(=O)/C=C/c2cccc3ccccc23)[n+]([O-])c2ccccc2[n+]1[O-]
[1]
  GI50: 4.85 µM (inactive)
[2]
  GI50: 12.6 µM (inactive)
[3]
  GI50: 12.7 µM
[4]
  GI50: 16.8 µM (inactive)
[5]
  GI50: 13.9 µM (inactive)
[6]
  GI50: 14 µM (inactive)
[7]
  GI50: 16.4 µM (inactive)
[8]
  GI50: 16.1 µM (inactive)
[9]
  GI50: 20.3 µM (inactive)
[10]
  GI50: 12.7 µM (inactive)
[11]
  GI50: 17.3 µM (inactive)
[12]
  GI50: 15.3 µM (inactive)
[13]
  GI50: 12.8 µM (inactive)
[15]
  GI50: 11.9 µM (inactive)
[16]
  GI50: 10.7 µM (inactive)

## CCOC(=O)C(=O)C=P(c1ccccc1)(c1ccccc1)c1ccccc1
[1]
  GI50: > 100 µM (inactive)
[2]
  GI50: > 100 µM (inactive)
[3]
  GI50: > 100 µM
[4]
  GI50: > 100 µM (inactive)
[5]
  GI50: > 100 µM (inactive)
[6]
  GI50: > 100 µM (inactive)
[7]
  GI50: > 100 µM (inactive)
[8]
  GI50: > 100 µM (inactive)
[9]
  GI50: > 100 µM (inactive)
[10]
  GI50: > 100 µM (inactive)
[11]
  GI50: > 100 µM (inactive)
[12]
  GI50: > 100 µM (inactive)
[13]
  GI50: > 100 µM (inactive)
[14]
  GI50: > 100 µM (inactive)
[15]
  GI50: > 100 µM (inactive)
[16]
  GI50: > 100 µM (inactive)
[17]
  GI50: > 100 µM (inactive)

## NCCNC(=O)c1cccc2cc3ccccc3nc12
[1]
  GI50: 1.77 µM (inactive)
[2]
  GI50: 7.6 µM (inactive)
[3]
  GI50: 1.91 µM
[4]
  GI50: 2.65 µM (inactive)
[5]
  GI50: 1.07 µM (active)
[6]
  GI50: 1.43 µM (inactive)
[7]
  GI50: 1.27 µM (inactive)
[8]
  GI50: 2.94 µM (inactive)
[9]
  GI50: 2.3 µM (inactive)
[10]
  GI50: 0.439 µM (active)
[11]
  GI50: 5.26 µM (inactive)
[12]
  GI50: 1.02 µM (active)
[13]
  GI50: 2.62 µM (inactive)
[14]
  GI50: 2.23 µM (inactive)
[15]
  GI50: 1.79 µM (inactive)
[16]
  GI50: 3.66 µM (inactive)
[17]
  GI50: 2.47 µM (inactive)

## O=C(/C=C/c1ccccc1O)c1ccc([N+](=O)[O-])cc1
[1]
  GI50: 10.3 µM (inactive)
[2]
  GI50: 17.3 µM (inactive)
[3]
  GI50: 17 µM
[4]
  GI50: 16.5 µM (inactive)
[5]
  GI50: 12.5 µM (inactive)
[6]
  GI50: 18 µM (inactive)
[7]
  GI50: 22.5 µM (inactive)
[8]
  GI50: 21.7 µM (inactive)
[9]
  GI50: 26.7 µM (inactive)
[10]
  GI50: 19.4 µM (inactive)
[11]
  GI50: 19.1 µM (inactive)
[12]
  GI50: 11.9 µM (inactive)
[13]
  GI50: 11.3 µM (inactive)
[14]
  GI50: 20.1 µM (inactive)
[15]
  GI50: 18.4 µM (inactive)
[16]
  GI50: 12.4 µM (inactive)
[17]
  GI50: 19.8 µM (inactive)

## C/C(=N\NS(=O)(=O)c1ccc(C)cc1)c1ccc[n+]([O-])n1
[1]
  GI50: > 100 µM (inactive)
[2]
  GI50: > 100 µM (inactive)
[3]
  GI50: > 100 µM
[4]
  GI50: > 100 µM (inactive)
[7]
  GI50: > 100 µM (inactive)
[8]
  GI50: > 100 µM (inactive)
[10]
  GI50: 36.7 µM (inactive)
[11]
  GI50: > 100 µM (inactive)
[12]
  GI50: > 100 µM (inactive)
[13]
  GI50: > 100 µM (inactive)
[14]
  GI50: > 100 µM (inactive)
[15]
  GI50: > 100 µM (inactive)
[16]
  GI50: 39.5 µM (inactive)

## N#Cc1cccnc1Cl
[1]
  GI50: > 100 µM (inactive)
[2]
  GI50: > 100 µM (inactive)
[3]
  GI50: > 100 µM
[4]
  GI50: > 100 µM (inactive)
[5]
  GI50: > 100 µM (inactive)
[6]
  GI50: > 100 µM (inactive)
[7]
  GI50: > 100 µM (inactive)
[8]
  GI50: > 100 µM (inactive)
[9]
  GI50: > 100 µM (inactive)
[10]
  GI50: > 100 µM (inactive)
[11]
  GI50: > 100 µM (inactive)
[12]
  GI50: > 100 µM (inactive)
[13]
  GI50: > 100 µM (inactive)
[14]
  GI50: > 100 µM (inactive)
[15]
  GI50: > 100 µM (inactive)
[16]
  GI50: > 100 µM (inactive)
[17]
  GI50: > 100 µM (inactive)

## O=C1C2c3[nH]c4ccccc4c3C3CCCC3C2C(=O)N1c1ccccc1 (stereo not drawn)
[1]
  GI50: > 100 µM (inactive)
[2]
  GI50: > 100 µM (inactive)
[3]
  GI50: 78 µM
[4]
  GI50: > 100 µM (inactive)
[5]
  GI50: > 100 µM (inactive)
[7]
  GI50: > 100 µM (inactive)
[8]
  GI50: > 100 µM (inactive)
[9]
  GI50: > 100 µM (inactive)
[10]
  GI50: > 100 µM (inactive)
[12]
  GI50: > 100 µM (inactive)
[13]
  GI50: > 100 µM (inactive)
[14]
  GI50: > 100 µM (inactive)
[15]
  GI50: > 100 µM (inactive)
[16]
  GI50: > 100 µM (inactive)

## COC1C(OC(=O)/C=C/C=C/C=C/C=C\C(=O)O)CCC2(CO2)C1C1(C)OC1CC=C(C)C (stereo not drawn)
[1]
  GI50: > 100 µM (inactive)
[2]
  GI50: > 100 µM (inactive)
[3]
  GI50: > 100 µM
[4]
  GI50: > 100 µM (inactive)
[5]
  GI50: > 100 µM (inactive)
[18]
  GI50: > 100 µM (inactive)
[6]
  GI50: > 100 µM (inactive)
[7]
  GI50: > 100 µM (inactive)
[8]
  GI50: > 100 µM (inactive)
[9]
  GI50: > 100 µM (inactive)
[10]
  GI50: > 100 µM (inactive)
[11]
  GI50: > 100 µM (inactive)
[19]
  GI50: > 100 µM (inactive)
[12]
  GI50: > 100 µM (inactive)
[13]
  GI50: > 100 µM (inactive)
[14]
  GI50: > 100 µM (inactive)
[15]
  GI50: > 100 µM (inactive)
[20]
  GI50: > 100 µM (inactive)
[16]
  GI50: > 100 µM (inactive)
[17]
  GI50: > 100 µM (inactive)

## O=C(CCc1ccccc1)On1nnc2ccccc2c1=O
[1]
  GI50: > 100 µM (inactive)
[2]
  GI50: > 100 µM (inactive)
[3]
  GI50: > 100 µM
[4]
  GI50: > 100 µM (inactive)
[5]
  GI50: > 100 µM (inactive)
[6]
  GI50: > 100 µM (inactive)
[7]
  GI50: > 100 µM (inactive)
[8]
  GI50: > 100 µM (inactive)
[9]
  GI50: 26.5 µM (inactive)
[10]
  GI50: > 100 µM (inactive)
[11]
  GI50: > 100 µM (inactive)
[12]
  GI50: > 100 µM (inactive)
[13]
  GI50: > 100 µM (inactive)
[14]
  GI50: > 100 µM (inactive)
[15]
  GI50: > 100 µM (inactive)
[16]
  GI50: > 100 µM (inactive)
[17]
  GI50: > 100 µM (inactive)

## C1CN2N3CCCC23C1 (stereo not drawn)
[1]
  GI50: > 100 µM (inactive)
[2]
  GI50: > 100 µM (inactive)
[3]
  GI50: > 100 µM
[4]
  GI50: > 100 µM (inactive)
[5]
  GI50: > 100 µM (inactive)
[6]
  GI50: > 100 µM (inactive)
[7]
  GI50: > 100 µM (inactive)
[8]
  GI50: > 100 µM (inactive)
[9]
  GI50: > 100 µM (inactive)
[10]
  GI50: > 100 µM (inactive)
[11]
  GI50: > 100 µM (inactive)
[12]
  GI50: > 100 µM (inactive)
[13]
  GI50: > 100 µM (inactive)
[14]
  GI50: > 100 µM (inactive)
[15]
  GI50: > 100 µM (inactive)
[16]
  GI50: > 100 µM (inactive)
[17]
  GI50: > 100 µM (inactive)

## CC(C)Cc1ccc(C(C)/C=C2\CCC(CN(C)C)C2=O)cc1 (stereo not drawn)
[1]
  GI50: 19.2 µM (inactive)
[2]
  GI50: 2.96 µM (inactive)
[3]
  GI50: 9.18 µM
[4]
  GI50: 16.8 µM (inactive)
[5]
  GI50: 11.6 µM (inactive)
[18]
  GI50: 11.4 µM (inactive)
[6]
  GI50: 20.2 µM (inactive)
[7]
  GI50: 27.7 µM (inactive)
[8]
  GI50: 14.7 µM (inactive)
[9]
  GI50: 9.23 µM (inactive)
[10]
  GI50: 3.2 µM (inactive)
[11]
  GI50: 10.9 µM (inactive)
[19]
  GI50: 7.16 µM (inactive)
[12]
  GI50: 19.4 µM (inactive)
[13]
  GI50: 12.6 µM (inactive)
[14]
  GI50: 11.7 µM (inactive)
[15]
  GI50: 17.6 µM (inactive)
[20]
  GI50: 2.28 µM (inactive)
[16]
  GI50: 12.7 µM (inactive)
[17]
  GI50: 14.4 µM (inactive)
